Reference: patent publication US6867192B1, “Compounds useful in the treatment of inflammatory diseases” (priority 1998, dated 2005)
Like-named read-outs stand apart in the source and are kept apart here.

Tests used:
CD4+ T-cells = test: CD3/VCAM-1 co-stimulation of T-lymphocyte proliferation; type: cell-based; settings: T-cell; [3H] thymidine incorporation, 4 days incubation, anti-CD3/zzVCAM-1 coated plates
Description: (2) CD3/VCAM-1 Co-stimulation of T-Lymphocyte Proliferation
CD4^+ T-cells were purified from peripheral blood mononuclear cells by negative selection with anti-CD14, CD19, CD16 and HLA.DR antibodies and Dynal beads. Flat bottomed 96-well tissue culture plates were coated with 1 μg ml^−1 anti-CD3 antibody (OKT3), washed and incubated with human IgG and zzVCAM-1 fusion proteins. The CD4^+ T cells (prepared in RPMI-1640 medium supplemented with 10% FCS, penicillin or streptomycin and L-glutamine) were added to the coated plates (1×10^5 cells well^−1) and incubated in the presence or absence of various doses of compound or blocking antibodies for 4 days. Radiolabelled thymidine [^3H] was added for the final 6 hours of incubation and the cells were then harvested using a Skatron plate harvester. Incorporation of the [^3H] label was measured as an indicator of T cell proliferation using a β plate counter. Compounds were assayed in triplicate and data was collected in an analogous procedure to that described for Assay (1).

[1] = target: T1, integrin VLA-4, expressed on the Jurkat J6 (human lymphoblast cell line) cell membrane with VCAM-1 (Homo sapiens, UniProt P05556+P13612); test: Jurkat J6/VCAM-1 adhesion assay; type: cell-based; settings: Jurkat J6 cell adhesion to VCAM-1, 1 mM MnCl2; mean of n experiments
T1 construct: integrin VLA-4, expressed on the Jurkat J6 (human lymphoblast cell line) cell membrane; endogenous in cells; host or cells: Jurkat J6 cells (integrin). zzVCAM-1 was made in house in Drosophila melanogaster S2 cells
T1 sequence (P13612 34-1032): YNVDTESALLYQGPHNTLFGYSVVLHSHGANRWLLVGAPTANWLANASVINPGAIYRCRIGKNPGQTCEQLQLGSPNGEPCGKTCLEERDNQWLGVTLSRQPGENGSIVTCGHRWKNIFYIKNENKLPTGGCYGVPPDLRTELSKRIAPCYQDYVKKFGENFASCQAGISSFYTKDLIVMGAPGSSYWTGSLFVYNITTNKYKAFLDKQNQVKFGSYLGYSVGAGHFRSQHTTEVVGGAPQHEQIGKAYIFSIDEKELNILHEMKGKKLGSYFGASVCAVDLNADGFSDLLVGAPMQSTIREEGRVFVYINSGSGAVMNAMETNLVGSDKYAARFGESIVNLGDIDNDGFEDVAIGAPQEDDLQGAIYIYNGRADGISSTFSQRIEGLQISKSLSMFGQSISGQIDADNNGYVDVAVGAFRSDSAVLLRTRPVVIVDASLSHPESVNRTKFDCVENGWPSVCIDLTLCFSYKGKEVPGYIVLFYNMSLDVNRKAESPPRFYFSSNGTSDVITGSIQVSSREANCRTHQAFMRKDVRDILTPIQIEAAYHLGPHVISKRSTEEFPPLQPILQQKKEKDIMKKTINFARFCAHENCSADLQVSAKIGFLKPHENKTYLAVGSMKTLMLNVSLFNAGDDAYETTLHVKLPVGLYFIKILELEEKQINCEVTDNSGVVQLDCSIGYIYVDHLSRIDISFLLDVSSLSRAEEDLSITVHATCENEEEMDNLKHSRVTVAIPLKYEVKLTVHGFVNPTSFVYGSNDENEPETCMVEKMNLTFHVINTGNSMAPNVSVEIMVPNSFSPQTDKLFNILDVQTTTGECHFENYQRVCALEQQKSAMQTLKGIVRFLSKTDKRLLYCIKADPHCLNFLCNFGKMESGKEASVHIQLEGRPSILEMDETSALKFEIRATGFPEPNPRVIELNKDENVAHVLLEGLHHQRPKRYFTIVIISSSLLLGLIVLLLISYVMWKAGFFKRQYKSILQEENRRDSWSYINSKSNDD
T1 sequence (P05556 21-798): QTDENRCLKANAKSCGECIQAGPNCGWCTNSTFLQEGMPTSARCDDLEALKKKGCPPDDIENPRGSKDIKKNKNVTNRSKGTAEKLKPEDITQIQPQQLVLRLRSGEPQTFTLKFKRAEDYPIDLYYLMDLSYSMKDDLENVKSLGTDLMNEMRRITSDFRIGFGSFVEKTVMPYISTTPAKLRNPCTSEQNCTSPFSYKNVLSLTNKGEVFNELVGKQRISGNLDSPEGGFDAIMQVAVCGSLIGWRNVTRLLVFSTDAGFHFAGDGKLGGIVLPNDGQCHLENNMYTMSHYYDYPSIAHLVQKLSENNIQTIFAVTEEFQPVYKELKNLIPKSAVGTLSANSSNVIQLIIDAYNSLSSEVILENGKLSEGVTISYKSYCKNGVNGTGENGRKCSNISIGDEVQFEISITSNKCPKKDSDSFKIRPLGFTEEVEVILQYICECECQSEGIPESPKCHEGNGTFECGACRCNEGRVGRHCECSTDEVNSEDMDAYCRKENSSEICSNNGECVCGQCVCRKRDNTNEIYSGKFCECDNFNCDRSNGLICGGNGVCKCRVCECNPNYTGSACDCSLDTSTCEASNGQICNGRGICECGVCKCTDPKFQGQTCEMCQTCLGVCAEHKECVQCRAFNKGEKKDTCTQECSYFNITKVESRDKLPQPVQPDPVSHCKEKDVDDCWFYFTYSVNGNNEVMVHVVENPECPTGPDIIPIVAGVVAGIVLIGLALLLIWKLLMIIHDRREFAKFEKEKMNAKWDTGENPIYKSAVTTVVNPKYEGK
Outline: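 Jurkat J6 cells loaded with BCECF-AM were added with compound in HBSS with 1 mM MnCl2 to plates coated with IgG-captured zzVCAM-1 (seven-domain, S2-expressed) and left to adhere for 30 min at 37 °C. After washing, fluorescence was read. pIC50 came from a four-parameter fit between no compound and 2 mM EDTA.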

[2] = system: ovalbumin sensitised guinea pigs; test: Inhibition of eosinophil infiltration and hyper-reactivity in the guinea pig; type: in vivo; settings: Cavia porcellus, Eosinophil, inhaled or nasal, 24 h, 0.5 hours before and 6 hours after antigen challenge; for inhibition in vivo at 0.0002 mg/kg: intratracheal dose 0.2 μg/kg body weight; for inhibition in vivo at 0.002 mg/kg: intratracheal dose 2 μg/kg body weight
Description: (3) Inhibition of Eosinophil Infiltration and Hyper-Reactivity in the Guinea Pig
In a method based on that described by Danahay et al., 1997, ovalbumin sensitised guinea pigs were dosed with mepyramine (30 mg kg^−1 ip) to protect against anaphylactic bronchospasm. Test compounds, dissolved in 0.9% saline, were given by the inhaled route (30 minutes breathing of an aerosol of the compound) or the intra-tracheal route, 30 minutes before and 6 hours after ovalbumin challenge (10 minutes breathing of an aerosol generated from a 0.5% solution of ovalbumin). Hyper-reactivity of the airways to the thromboxane mimetic U46619, was measured 24 hours after ovalbumin challenge in un-restrained animals using a whole body plethysmograph (Buxco Ltd., USA). The guinea pigs were then sacrificed and the lungs lavaged. Total and differential leukocyte counts were then obtained for the bronchoalveolar lavage fluid and the percentage reduction in eosinophil accumulation determined (Sanjar et al., 1992). Dexamethasone (200 μg kg^−1 i.t) was used as a positive control. Data was presented as the inhibitory effect of the specified dose expressed as a percentage of the vehicle control response.

[3] = airway hyper-reactivity to U46619, read-out: % Inhibition Hyper-reactivity
[4] = read-out: % Inhibition Eosinophil Accumulation

IC50 [1] [nM]	Compound	IC50 (CD4+ T-cells) [nM]	inhibition in vivo at 0.0002 mg/kg [2, 3] [%]	inhibition in vivo at 0.0002 mg/kg [2, 4] [%]	inhibition in vivo at 0.002 mg/kg [2, 3] [%]	inhibition in vivo at 0.002 mg/kg [2, 4] [%]
4.47	CC(C)C[C@H](NC(=O)COc1ccccc1I)C(=O)N[C@@H](Cc1ccc(OC(=O)N2CCOCC2)cc1)C(=O)O [Example 23, (2S)-2-[((2S)-2-{[2-(2-Iodophenoxy)acetyl]amino}-4-methylpentanoyl)amino]-3-{4-[(4-morpholinylcarbonyl)oxy]phenyl}propanoic acid]	126	–	–	79	51
6.03	CC(C)C[C@H](NC(=O)COc1ccccc1C(C)(C)C)C(=O)N[C@@H](Cc1ccc(OC(=O)N2CCOCC2)cc1)C(=O)O [Example 24, (2S)-2-{[(2S)-2-({2-[2-(Tert-butyl)phenoxy]acetyl}amino)-4-methylpentanoyl]amino}-3-{4-[(4-morpholinylcarbonyl)oxy]phenyl}propanoic acid]	79.4	44	26	85	77
2.82	Cc1ccccc1OCC(=O)N[C@@H](CC(C)C)C(=O)N[C@@H](Cc1ccc(OC(=O)N2CCC(C(N)=O)CC2)cc1)C(=O)O [Example 27, (2S)-3-[4-({[4-(Aminocarbonyl)-1-piperidinyl]carbonyl}oxy)phenyl]-2-[((2S)-4-methyl-2-{[2-(2-methylphenoxy)acetyl]amino}pentanoyl)amino]propanoic acid]	31.6	88	58	87	90
3.47	CC(C)C[C@H](NC(=O)c1cccc2c1oc1ccccc12)C(=O)N[C@@H](Cc1ccc(OC(=O)N2CCC(C(N)=O)CC2)cc1)C(=O)O [Example 28, (2S)-3-[4-({[4-(Aminocarbonyl)-1-piperidinyl]carbonyl}oxy)phenyl]-2-({(2S)-2-[(dibenzo[b,d]furan-4-ylcarbonyl)amino]-4-methylpentanoyl}amino)propanoic acid]	158	70	3	47	62

The remaining lines, values behind:

Compound	IC50 [1] [nM]	IC50 (CD4+ T-cells) [nM]	inhibition in vivo at 0.0002 mg/kg [2, 3] [%]	inhibition in vivo at 0.0002 mg/kg [2, 4] [%]	inhibition in vivo at 0.002 mg/kg [2, 3] [%]	inhibition in vivo at 0.002 mg/kg [2, 4] [%]
CC(=O)N1CCN(C(=O)Oc2ccc(C[C@H](NC(=O)[C@H](CC(C)C)NC(=O)COc3ccccc3C(C)(C)C)C(=O)O)cc2)CC1 [Example 16, (2S)-3-(4-{[(4-Acetyl-1-piperazinyl)carbonyl]oxy}phenyl)-2-{[(2S)-2-({2-[2-(tert-butyl)phenoxy]acetyl}amino)-4-methylpentanoyl]amino}propanoic acid]	3.24	39.8	80	62	95	78
CC(=O)N1CCN(C(=O)Oc2ccc(C[C@H](NC(=O)[C@H](CC(C)C)NC(=O)COc3ccccc3C)C(=O)O)cc2)CC1 [Example 17, (2S)-3-(4-{[(4-Acetyl-1-piperazinyl)carbonyl]oxy}phenyl)-2-[((2S)-4-methyl-2-{[2-(2-methylphenoxy)acetyl]amino}pentanoyl)amino]propanoic acid]	2.57	31.6	58	68	88	61
CC(C)C[C@H](NC(=O)COc1ccccc1C(C)(C)C)C(=O)N[C@@H](Cc1ccc(OC(=O)N2CCN(C(=O)c3ccccc3)CC2)cc1)C(=O)O [Example 20, (2S)-3-(4-{[(4-Benzoyl-1-piperazinyl)carbonyl]oxy}phenyl)-2-{[(2S)-2-({2-[2-(tert-butyl)phenoxy]acetyl}amino)-4-methylpentanoyl]amino}propanoic acid]	14.8	126	85	67	100	79
Cc1ccccc1OCC(=O)N[C@@H](CC(C)C)C(=O)N[C@@H](Cc1ccc(OC(=O)N2CCN(C(=O)c3ccccc3)CC2)cc1)C(=O)O [Example 21, (2S)-3-(4-{[(4-Benzoyl-1-piperazinyl)carbonyl]oxy}phenyl)-2-[((2S)-4-methyl-2-{[2-(2-methylphenoxy)acetyl]amino}pentanoyl)amino]propanoic acid]	3.89	126	82	49	85	79
